Laboratory results reported in patent publication EP1657232A1, “Use of S-enantiomers of alpha-sustituted aryl acetic acids for the prevention of Alzheimer's disease” (CELLZOME AG, priority 2004, dated 2006).

Biological target: T1, cyclooxygenase-1 (Cox-1) (Ovis aries, UniProt P05979)
T1 construct: purchased Cayman Chemical Company 760111
T1 sequence (P05979 25-600): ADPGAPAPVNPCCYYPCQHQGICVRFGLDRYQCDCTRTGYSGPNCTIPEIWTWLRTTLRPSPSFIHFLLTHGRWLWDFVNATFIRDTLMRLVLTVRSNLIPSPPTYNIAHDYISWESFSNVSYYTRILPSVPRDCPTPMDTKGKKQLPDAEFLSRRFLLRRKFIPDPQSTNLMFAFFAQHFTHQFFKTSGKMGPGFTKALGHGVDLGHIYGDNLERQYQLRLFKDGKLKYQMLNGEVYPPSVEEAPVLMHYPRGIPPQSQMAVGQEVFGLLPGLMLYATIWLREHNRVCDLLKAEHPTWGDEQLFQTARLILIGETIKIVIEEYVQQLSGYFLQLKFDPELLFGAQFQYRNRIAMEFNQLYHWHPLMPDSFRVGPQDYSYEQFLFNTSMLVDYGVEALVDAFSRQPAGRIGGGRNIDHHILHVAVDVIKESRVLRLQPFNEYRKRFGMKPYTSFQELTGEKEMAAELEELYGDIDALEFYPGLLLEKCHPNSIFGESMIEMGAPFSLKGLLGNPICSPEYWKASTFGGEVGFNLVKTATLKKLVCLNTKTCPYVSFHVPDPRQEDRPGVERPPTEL
Assay: Colorimetric Cox inhibitor screening assay (Cayman Chemical, Cat. No. 760111)
Type: biochemical
Procedure: Inhibition of Cox-1 is determined using the Colorimetric Cox inhibitor screening assay provided by Cayman Chemical Company, Ann Arbor, MI, USA. (Cat. No. 760111) according to manufacturer's instructions.

inhibitory effect against Cox-1 activity: no inhibitory effect
SMILES: CC(C)[C@H](C(=O)O)c1ccc(-c2cccc(C(F)(F)F)c2)cc1 [title compound of example 1, 2(S)-(3'-trifluoromethyl-biphenyl-4-yl)-3-methyl-butanoic acid]
